# From PubChem BioAssay AID2060885 (Molecular Pharmacology Branch, DTP, NCI, 2025)
# System: NCI-H23 complex spheroids with HUVEC/MSC, viability
# Assay: Anticancer human tumor NCI-H23 cell line growth inhibition [RAS];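 also: spheroids exposed to compound for 7 days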;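 as to viability, T/C: 100% = DMSO vehicle control viability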
# Conditions: for IC50: curve of first compound; for viability, T/C: stronger effect = lower value
# Summary of the method: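 Agents were tested in combination matrices in half-log decrements from a top concentration at or near clinical Cmax (10 microM if undetermined). Targets were multi-cell spheroids of tumour lines plus HUVEC and MSC stromal cells.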
# [1] = second compound 0.00316 µM, first compound 0.0316 µM
# [2] = second compound 0.00316 µM, first compound 0.1 µM
# [3] = second compound 0.00316 µM, first compound 0.316 µM
# [4] = second compound 0.00316 µM, first compound 1 µM
# [5] = second compound 0.00316 µM, first compound 3.16 µM
# [6] = second compound 0.00316 µM, first compound 10 µM
# [7] = second compound 0.01 µM, first compound 0.0316 µM
# [8] = second compound 0.01 µM, first compound 0.1 µM
# [9] = second compound 0.01 µM, first compound 0.316 µM
# [10] = second compound 0.01 µM, first compound 1 µM
# [11] = second compound 0.01 µM, first compound 3.16 µM
# [12] = second compound 0.01 µM, first compound 10 µM
# [13] = second compound 0.0316 µM, first compound 0.0316 µM
# [14] = second compound 0.0316 µM, first compound 0.1 µM
# [15] = second compound 0.0316 µM, first compound 0.316 µM
# [16] = second compound 0.0316 µM, first compound 1 µM
# [17] = second compound 0.0316 µM, first compound 3.16 µM
# [18] = second compound 0.0316 µM, first compound 10 µM
# [19] = second compound 0.1 µM, first compound 0.0316 µM
# [20] = second compound 0.1 µM, first compound 0.1 µM
# [21] = second compound 0.1 µM, first compound 0.316 µM
# [22] = second compound 0.1 µM, first compound 1 µM
# [23] = second compound 0.1 µM, first compound 3.16 µM
# [24] = second compound 0.1 µM, first compound 10 µM
# [25] = second compound 0.316 µM, first compound 0.0316 µM
# [26] = second compound 0.316 µM, first compound 0.1 µM
# [27] = second compound 0.316 µM, first compound 0.316 µM
# [28] = second compound 0.316 µM, first compound 1 µM
# [29] = second compound 0.316 µM, first compound 3.16 µM
# [30] = second compound 0.316 µM, first compound 10 µM
# [31] = second compound 1 µM, first compound 0.0316 µM
# [32] = second compound 1 µM, first compound 0.1 µM
# [33] = second compound 1 µM, first compound 0.316 µM
# [34] = second compound 1 µM, first compound 1 µM
# [35] = second compound 1 µM, first compound 3.16 µM
# [36] = second compound 1 µM, first compound 10 µM
smiles,measurement,setting,value
CC(Nc1ccc2c(c1)OCCn1cc(N3C(=O)OCC3C(F)F)nc1-2)C(N)=O (stereo unspecified) + C=CC(=O)N1CCN(c2nc(OCC3CCCN3C)nc3c(F)c(-c4nc(N)cc(C)c4C(F)(F)F)c(Cl)cc23)C(C)C1,IC50,second compound 0.00316 µM,0.142 µM
same,IC50,second compound 0.01 µM,< 0.0316 µM
same,IC50,second compound 0.0316 µM,< 0.0316 µM
same,IC50,second compound 0.1 µM,< 0.0316 µM
same,IC50,second compound 0.316 µM,< 0.0316 µM
same,IC50,second compound 1 µM,< 0.0316 µM
same,"viability, T/C",[1],51.2%
same,"viability, T/C",[2],60.2%
same,"viability, T/C",[3],34.6%
same,"viability, T/C",[4],39.1%
same,"viability, T/C",[5],35.8%
same,"viability, T/C",[6],38.3%
same,"viability, T/C",[7],43.8%
same,"viability, T/C",[8],40.7%
same,"viability, T/C",[9],35.9%
same,"viability, T/C",[10],28.7%
same,"viability, T/C",[11],31%
same,"viability, T/C",[12],26.5%
same,"viability, T/C",[13],36.4%
same,"viability, T/C",[14],35.5%
same,"viability, T/C",[15],27.2%
same,"viability, T/C",[16],27.3%
same,"viability, T/C",[17],24.8%
same,"viability, T/C",[18],23.3%
same,"viability, T/C",[19],31.4%
same,"viability, T/C",[20],29.3%
same,"viability, T/C",[21],26.4%
same,"viability, T/C",[22],27.6%
same,"viability, T/C",[23],22.9%
same,"viability, T/C",[24],22.4%
same,"viability, T/C",[25],28.7%
same,"viability, T/C",[26],31.2%
same,"viability, T/C",[27],30%
same,"viability, T/C",[28],23.7%
same,"viability, T/C",[29],25.9%
same,"viability, T/C",[30],24.3%
same,"viability, T/C",[31],33%
same,"viability, T/C",[32],33.5%
same,"viability, T/C",[33],28.8%
same,"viability, T/C",[34],22.5%
same,"viability, T/C",[35],27.8%
same,"viability, T/C",[36],25%
C[C@@H](NC(=O)c1ncnc(N)c1Cl)c1ncc(C(=O)Nc2cc(C(F)(F)F)c(Cl)cn2)s1 + C=CC(=O)N1CCN(c2nc(OCC3CCCN3C)nc3c(F)c(-c4nc(N)cc(C)c4C(F)(F)F)c(Cl)cc23)C(C)C1,IC50,second compound 0.00316 µM,> 10 µM
same,IC50,second compound 0.01 µM,0.201 µM
same,IC50,second compound 0.0316 µM,< 0.0316 µM
same,IC50,second compound 0.1 µM,< 0.0316 µM
same,IC50,second compound 0.316 µM,< 0.0316 µM
same,IC50,second compound 1 µM,< 0.0316 µM
same,"viability, T/C",[1],72.2%
same,"viability, T/C",[2],79.4%
same,"viability, T/C",[3],61.5%
same,"viability, T/C",[4],63.1%
same,"viability, T/C",[5],63.2%
same,"viability, T/C",[6],59.6%
same,"viability, T/C",[7],60.9%
same,"viability, T/C",[8],53.3%
same,"viability, T/C",[9],47.8%
same,"viability, T/C",[10],44.7%
same,"viability, T/C",[11],45.8%
same,"viability, T/C",[12],52.4%
same,"viability, T/C",[13],43.6%
same,"viability, T/C",[14],49%
same,"viability, T/C",[15],38.9%
same,"viability, T/C",[16],38.6%
same,"viability, T/C",[17],42%
same,"viability, T/C",[18],40.4%
same,"viability, T/C",[19],43.3%
same,"viability, T/C",[20],46.5%
same,"viability, T/C",[21],36.2%
same,"viability, T/C",[22],42.2%
same,"viability, T/C",[23],45.9%
same,"viability, T/C",[24],39.1%
same,"viability, T/C",[25],42.1%
same,"viability, T/C",[26],37.3%
same,"viability, T/C",[27],40.8%
same,"viability, T/C",[28],40.6%
same,"viability, T/C",[29],42.7%
same,"viability, T/C",[30],41%
same,"viability, T/C",[31],36.4%
same,"viability, T/C",[32],44.4%
same,"viability, T/C",[33],45.4%
same,"viability, T/C",[34],42%
same,"viability, T/C",[35],43.6%
same,"viability, T/C",[36],40.5%
O=C(c1ccc(F)c(F)c1Nc1ccc(I)cc1F)N1CC(O)([C@@H]2CCCCN2)C1 + C=CC(=O)N1CCN(c2nc(OCC3CCCN3C)nc3c(F)c(-c4nc(N)cc(C)c4C(F)(F)F)c(Cl)cc23)C(C)C1,IC50,second compound 0.00316 µM,0.0435 µM
same,IC50,second compound 0.01 µM,0.00449 µM
same,IC50,second compound 0.0316 µM,< 0.00316 µM
same,IC50,second compound 0.1 µM,< 0.00316 µM
same,IC50,second compound 0.316 µM,< 0.00316 µM
same,IC50,second compound 1 µM,< 0.00316 µM
same,"viability, T/C","second compound 0.00316 µM, first compound 0.00316 µM",58.7%
same,"viability, T/C","second compound 0.00316 µM, first compound 0.01 µM",61%
same,"viability, T/C",[1],52.9%
same,"viability, T/C",[2],40.7%
same,"viability, T/C",[3],29.3%
same,"viability, T/C",[4],16.8%
same,"viability, T/C","second compound 0.01 µM, first compound 0.00316 µM",50.9%
same,"viability, T/C","second compound 0.01 µM, first compound 0.01 µM",50.1%
same,"viability, T/C",[7],41.1%
same,"viability, T/C",[8],40%
same,"viability, T/C",[9],28.6%
same,"viability, T/C",[10],14.9%
same,"viability, T/C","second compound 0.0316 µM, first compound 0.00316 µM",44.7%
same,"viability, T/C","second compound 0.0316 µM, first compound 0.01 µM",48.9%
same,"viability, T/C",[13],37.2%
same,"viability, T/C",[14],32.4%
same,"viability, T/C",[15],24%
same,"viability, T/C",[16],11.8%
same,"viability, T/C","second compound 0.1 µM, first compound 0.00316 µM",37.1%
same,"viability, T/C","second compound 0.1 µM, first compound 0.01 µM",40.2%
same,"viability, T/C",[19],33.3%
same,"viability, T/C",[20],28.9%
same,"viability, T/C",[21],24%
same,"viability, T/C",[22],13.4%
same,"viability, T/C","second compound 0.316 µM, first compound 0.00316 µM",40%
same,"viability, T/C","second compound 0.316 µM, first compound 0.01 µM",37.5%
same,"viability, T/C",[25],30.6%
same,"viability, T/C",[26],28%
same,"viability, T/C",[27],21.2%
same,"viability, T/C",[28],13.7%
same,"viability, T/C","second compound 1 µM, first compound 0.00316 µM",39%
same,"viability, T/C","second compound 1 µM, first compound 0.01 µM",38.4%
same,"viability, T/C",[31],31.4%
same,"viability, T/C",[32],32.7%
same,"viability, T/C",[33],24.2%
same,"viability, T/C",[34],12.6%
